# Experiments:
# Assay type in all cases: cell-based
# SK-BR-3 = assay: SRB colorimetric cell growth inhibition assay, SK-BR-3; conditions: SK-BR-3
# Summary of the method: (§1)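 Quantitation uses the sulforhodamine B reaction on cells exposed to sample for the whole assay period; results (mean ± SD, n = 3 wells) yield GI, TGI and LC.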
# LoVo-Dox = assay: SRB colorimetric cell growth inhibition assay, LoVo-Dox (MDR); conditions: LOVO-DOX
# Summary of the method: as §1
# DU-145 = assay: SRB colorimetric cell growth inhibition assay, DU-145; conditions: DU-145
# Summary of the method: as §1
# PANC-1 = assay: SRB colorimetric cell growth inhibition assay, PANC-1; conditions: PANC-1
# Summary of the method: as §1
# LoVo = assay: SRB colorimetric cell growth inhibition assay, LoVo; conditions: LOVO
# Summary of the method: as §1
# HeLa-APL = assay: SRB colorimetric cell growth inhibition assay, HeLa-APL (aplidine resistant); conditions: HELA-APL
# Summary of the method: as §1
# HeLa = assay: SRB colorimetric cell growth inhibition assay, HeLa; conditions: HELA
# Summary of the method: as §1
# K-562 = assay: SRB colorimetric cell growth inhibition assay, K-562
# Summary of the method: as §1
# A-549 = assay: SRB colorimetric cell growth inhibition assay, A-549; conditions: A-549
# Summary of the method: as §1
# IGROV-ET = assay: SRB colorimetric cell growth inhibition assay, IGROV-ET (ET-743 resistant); conditions: IGROV-ET
# Summary of the method: as §1
# LNCaP = assay: SRB colorimetric cell growth inhibition assay, LNCaP; conditions: LN-caP
# Summary of the method: as §1
# SK-MEL-28 = assay: SRB colorimetric cell growth inhibition assay, SK-MEL-28; conditions: MEL-28
# Summary of the method: as §1
# HT-29 = assay: SRB colorimetric cell growth inhibition assay, HT-29; conditions: HT-29
# Summary of the method: as §1
# IGROV = assay: SRB colorimetric cell growth inhibition assay, IGROV; conditions: IGROV
# Summary of the method: as §1
# [1] = total growth inhibition (cytostatic effect)
smiles,measurement,setting,value
COc1cc(-c2c3c4cc(OC)c(OC(=O)[C@H](C)N)cc4oc(=O)c3n3ccc4c(OC(=O)[C@H](C)N)c(OC)c(OC)cc4c23)ccc1OC(=O)[C@H](C)N [Compound 16],GI50,"SK-BR-3; GI=growth inhibition, read-out: GI50 SK-BR-3",207 nM
same,CC50,"SK-BR-3; cell killing (cytotoxic effect), read-out: LC50 SK-BR-3",816 nM
same,TGI SK-BR-3,SK-BR-3; [1],4.11E−07 Molar
same,GI50,"LoVo-Dox; Homo sapiens, GI=growth inhibition, read-out: GI50 LOVO-DOX",420 nM
same,CC50,"LoVo-Dox; cell killing (cytotoxic effect), read-out: LC50 LOVO-DOX",4420 nM
same,TGI LOVO-DOX,LoVo-Dox; [1],1.03E−06 Molar
same,GI50,"DU-145; GI=growth inhibition, read-out: GI50 DU-145",52.7 nM
same,CC50,"DU-145; cell killing (cytotoxic effect), read-out: LC50 DU-145",2800 nM
same,TGI DU-145,DU-145; [1],2.98E−07 Molar
same,GI50,"PANC-1; GI=growth inhibition, read-out: GI50 PANC-1",241 nM
same,CC50,"PANC-1; cell killing (cytotoxic effect), read-out: LC50 PANC-1",3340 nM
same,TGI PANC-1,PANC-1; [1],7.56E−07 Molar
same,GI50,"LoVo; GI=growth inhibition, read-out: GI50 LOVO",196 nM
same,CC50,"LoVo; cell killing (cytotoxic effect), read-out: LC50 LOVO",612 nM
same,TGI LOVO,LoVo; [1],3.47E−07 Molar
same,GI50,"HeLa-APL; GI=growth inhibition, read-out: GI50 HELA-APL",229 nM
same,CC50,"HeLa-APL; cell killing (cytotoxic effect), read-out: LC50 HELA-APL",2380 nM
same,TGI HELA-APL,HeLa-APL; [1],5.20E−07 Molar
same,GI50,"HeLa; GI=growth inhibition, read-out: GI50 HELA",193 nM
same,CC50,"HeLa; cell killing (cytotoxic effect), read-out: LC50 HELA",703 nM
same,TGI HELA,HeLa; [1],3.68E−07 Molar
same,GI50,"K-562; Homo sapiens, K562, K-562, GI=growth inhibition, read-out: GI50 K-562",183 nM
same,CC50,"K-562; K-562, cell killing (cytotoxic effect), read-out: LC50 K-562",2230 nM
same,TGI K-562,"K-562; K-562, total growth inhibition (cytostatic effect)",4.45E−07 Molar
same,GI50,"A-549; GI=growth inhibition, read-out: GI50 A-549",178 nM
same,CC50,"A-549; cell killing (cytotoxic effect), read-out: LC50 A-549",3050 nM
same,TGI A-549,A-549; [1],5.02E−07 Molar
same,GI50,"IGROV-ET; GI=growth inhibition, read-out: GI50 IGROV-ET",278 nM
same,CC50,"IGROV-ET; cell killing (cytotoxic effect), read-out: LC50 IGROV-ET",897 nM
same,TGI IGROV-ET,IGROV-ET; [1],5.00E−07 Molar
same,GI50,"LNCaP; GI=growth inhibition, read-out: GI50 LN-caP",131 nM
same,CC50,"LNCaP; cell killing (cytotoxic effect), read-out: LC50 LN-caP",534 nM
same,TGI LN-caP,LNCaP; [1],2.65E−07 Molar
same,GI50,"SK-MEL-28; GI=growth inhibition, read-out: GI50 MEL-28",138 nM
same,CC50,"SK-MEL-28; cell killing (cytotoxic effect), read-out: LC50 MEL-28",669 nM
same,TGI MEL-28,SK-MEL-28; [1],3.04E−07 Molar
same,GI50,"HT-29; GI=growth inhibition, read-out: GI50 HT-29",411 nM
same,CC50,"HT-29; cell killing (cytotoxic effect), read-out: LC50 HT-29",5000 nM
same,TGI HT-29,HT-29; [1],9.31E−07 Molar
same,GI50,"IGROV; GI=growth inhibition, read-out: GI50 IGROV",226 nM
same,CC50,"IGROV; cell killing (cytotoxic effect), read-out: LC50 IGROV",1590 nM
same,TGI IGROV,IGROV; [1],4.78E−07 Molar

# From patent US7396837B2, “Antitumoral analogs of lamellarins” (Pharma Mar, S.A.U., priority 2002, dated 2008)
